Entries after “also recorded” stand apart in the source; their conditions may differ.
Columns and labels:
[1] = Kinetics of the reaction of the complex with DMSO (UV spectroscopy); assay type: physicochemical; conditions: room temperature; in accord with published rate data for cis-Pt(NH3)2Cl2
Protocol: ^1 H, ^13 C, ^195 Pt and ^199 Hg NMR spectra were recorded on a Varian VXR-400 Fourier Transform spectrometer, operating at 399.95 MHZ (^1 H), […] (^13 C), 85.736 MHz (^195 Pt), and 71.600 MHz (^199 Hg). Standard acquisition parameter files were used for the accumulation of ^1 H and ^13 C spectra. For ^195 Pt NMR, a spectral window of 50 KHz was used, with a pulse width of 30 μsec, and a pulse delay of 100 μsec. Broadband proton decoupling was employed during acquisition of the spectra. ^195 Pt spectra were referenced externally using a 0.1M aqueous solution of K2 PtCl4 in 0.1M KCl. Chemical shifts are reported relative to K2 PtCl6 =0 ppm. (δK2 PtCl4 =[…]). Proton-decoupled ^199 Hg NMR spectra were recorded using a spectral window of 30 KHz, a pulse width of 30 μsec, and a pulse delay of 100 μsec. Chemical shifts are reported relative to external Hg(CH3)2 (0 ppm). Mass spectra were recorded using a VG instruments VG70-250 S/SE instrument. Infrared spectra were recorded using either a Perkin-Elmer PE-283 or a Mattson Alpha Centauri FTIR spectrometer. UV spectra were obtained using a Hewlett-Packard HP8452 spectrophotometer running off of an IBM-AT personal computer. Kinetic measurements were controlled using the Hewlett-Packard Multicell Kinetics Module. Data manipulation and plotting was performed using the program Igor^24 running on a Macintosh IIx personal computer. […]

MerR protein = molecular target: T1, MerR protein (Pseudomonas aeruginosa, UniProt P0A183); assay: In vitro DNA-protein crosslinking assay (gel mobility shift), MerR; assay type: biochemical; conditions: MerR and DNA fragment bearing its recognition sequence
T1 construct: made in house
Protocol: FIGS. 8-11: In vitro assay for crosslinking of proteins to DNA by 5-Chloromercuri-1,2-pentanediamine)dichloro platinum(II). Lane 1:4.5 pM DNA, 500 cpm Lane 2: DNA+460 pM MerR dimer Lane 3: DNA+protein+2.4 nM unlabeled competitor DNA Lane 4: DNA+protein+25 mM KCN Lane 5:DNA-protein complex treated with 10 mM 1 prior to competition. Lane 6: DNA-protein complex treated with 2 mM 1 prior to competition. Lane 7: DNA-protein complex treated with 0.4 mM crosslinker prior to competition Lanes 8-10: Reactions as for lane 5-7, pretreated with 25 mM KCN prior to competition. (Grant)
(§1) (Pried & Crothers, 1981; Garner & Revsin, 1981).
Proteins and DNA Probes. TFIIIA from Xenopus Borealis was provided by T. Tullius (Johns Hopkins University) and A. Wolffe (NIH). Fur was purified based on the method of Neilands and coworkers. MerR extract was obtained and quantified as described (O'Halloran, 1989). DNA probes used in TFIIIA, Fur, and MerR gel mobility shift assays were derived from plasmids pXBS201 (obtained from T. Tullius), pGMer and pBIB, respectively. […] DNA concentrations were determined by optical density at 260 nm by using a molar extinction coefficient of 1.3×10^4 per nucleotide pair. […]

Fur = molecular target: T2, Fur (Escherichia coli, UniProt P0A9A9); assay: In vitro DNA-protein crosslinking assay (gel mobility shift), Fur; assay type: biochemical; conditions: Fur and DNA fragment bearing its recognition sequence
T2 construct: made in house
Source text: as §1
(§2) Proteins and DNA Probes. TFIIIA from Xenopus Borealis was provided by T. Tullius (Johns Hopkins University) and A. Wolffe (NIH). Fur was purified based on the method of Neilands and coworkers. MerR extract was obtained and quantified as described (O'Halloran, 1989). DNA probes used in TFIIIA, Fur, and MerR gel mobility shift assays were derived from plasmids pXBS201 (obtained from T. Tullius), pGMer and pBIB, respectively. The 249-bp BamHI-HindIII fragment from pXBS201, 309-bp XhoI-PvuII fragment from pBIB and 411-bp BssHII-BssHII fragment from pGMer are labeled with [α-^32 P]dNTPs (Amersham) by the Klenow fragment of DNA polymerase (Bethesda Research Laboratories). The labeled fragments are then isolated and purified by gel electrophoresis. DNA concentrations were determined by optical density at 260 nm by using a molar extinction coefficient of 1.3×10^4 per nucleotide pair.
(§3) Crosslinking Activity Assay. DNA-protein-crosslinker are incubated in 20 μl (final volume) of binding buffer. The buffer for TFIIIA and MerR extract reaction is 20 mM Hepes [pH 7.5], 50 mM K2 SO4, 10 μMZnsO4, 3 mM MgCl2, 10% glycerol and 70 μg/ml Albumin, Bovine-carboxymethyl [c-BSA] (Sigma). The Fur incubation buffer is 20 mM Bis-Tris/Borate [pH 7.0], 50 mM K2 SO4, 5% glycerol, 1 mM MgCl2, 5 μG/ml salmon sperm DNA and 100 μg/ml c-BSA. […]

[2] = system: radiolabelled DNA fragment; assay: DNA-binding assay: electrophoretic mobility shift of a radiolabelled DNA fragment on polyacrylamide gel; conditions: for DNA mobility shift with increasing concentrations: polyacrylamide gel electrophoresis of radiolabelled DNA fragment
Source text: The assay used to determine the DNA-binding activity of the complexes is based on the assays developed by Lippard and coworkers for assaying the extent of DNA binding by cis-DDP, in which the electrophoretic mobility of a DNA molecule is altered by binding of the drug (Sundquist, 1990). Charge neutralization and DNA bending caused by binding of the divalent metal complex have been invoked to explain the observed mobility shift.

TFIIIA = molecular target: T3, TFIIIA (Xenopus borealis, UniProt P17842); assay: In vitro DNA-protein crosslinking assay (gel mobility shift), TFIIIA; assay type: biochemical; conditions: zinc finger transcription factor TFIIIA and DNA fragment bearing its recognition sequence
T3 sequence (P17842 1-339): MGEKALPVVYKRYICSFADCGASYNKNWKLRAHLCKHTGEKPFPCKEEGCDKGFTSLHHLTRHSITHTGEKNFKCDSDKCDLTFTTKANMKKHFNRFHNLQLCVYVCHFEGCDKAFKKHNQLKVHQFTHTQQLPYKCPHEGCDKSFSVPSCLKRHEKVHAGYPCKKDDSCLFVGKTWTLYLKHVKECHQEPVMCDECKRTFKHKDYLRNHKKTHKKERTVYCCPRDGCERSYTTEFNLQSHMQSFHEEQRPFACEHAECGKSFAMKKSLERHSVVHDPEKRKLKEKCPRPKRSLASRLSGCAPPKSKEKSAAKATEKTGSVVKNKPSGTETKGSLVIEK
Source text: as §1, §2, §3

Stability at low pH = assay type: physicochemical
[3] = Solubility of the cross-linker complex in solvents; assay type: physicochemical
Source text: The cross-linker species of the present invention has been characterized by a combination of analytical and spectroscopic techniques. […] The complex is quite soluble in DMSO, although a warning has been issued concerning the compositions of DMSO solutions of cisplatin derivatives (Sundquist, 1987). The proton NMR spectrum of the complex in d7-DMF is poorly resolved, and the resonances due to the residual protons in the deuterated solvent tend to obscure parts of the spectrum of the complex.
This appears to be an effect of particle size on dissolution rate, since no differences can be discerned in the infrared spectra of the complex before or after this treatment. In particular there is no evidence for coordinated DMSO in the region 1000-1200 cm-^1.

[4] = cited from earlier work

T1 sequence (P0A183 whole entry, the tested form may be a part): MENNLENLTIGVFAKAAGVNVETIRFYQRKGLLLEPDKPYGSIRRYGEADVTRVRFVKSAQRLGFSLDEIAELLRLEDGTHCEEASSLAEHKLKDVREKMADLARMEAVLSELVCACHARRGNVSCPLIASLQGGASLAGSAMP
T2 sequence (P0A9A9 2-148): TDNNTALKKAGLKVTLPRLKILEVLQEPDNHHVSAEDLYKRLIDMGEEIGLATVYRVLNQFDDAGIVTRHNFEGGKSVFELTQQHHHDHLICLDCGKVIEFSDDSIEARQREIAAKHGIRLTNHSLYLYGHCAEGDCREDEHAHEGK

Row | Compound | induction of DNA-protein cross-links, MerR (MerR protein) | induction of DNA-protein cross-links, Fur (Fur) | binding to DNA [2] | DNA mobility shift with increasing concentrations [2] | induction of DNA-protein cross-links, TFIIIA (TFIIIA) | toxicity in phase I trials [4] | also measured
1 | 5-Chloromercuri-1,2-pentanediamine)dichloro platinum(II) [Merplatin] | can efficiently induce DNA-protein cross-links | can efficiently induce DNA-protein cross-links | bind avidly to DNA | saturation binding curve which is identical in form with a curve obtained by incubation of DNA with PtenCl2 | can efficiently induce DNA-protein cross-links | – | half-life of reaction with DMSO [1]: approximately 3 hours; stability at low pH (Stability at low pH): stable at low pH; solubility in DMSO ([3]; DMSO): quite soluble; solubility in NMP after reprecipitation ([3]; NMP, after dissolution in DMSO and immediate precipitation with ethanol): readily soluble; solubility in amide solvents ([3]; dimethylformamide or 1-methylpyrrolidinone (NMP), complex as prepared in Example 1): limited solubility; also recorded: dissolves sparingly; concentration of solutions that can be prepared in amide solvents ([3]; dimethylformamide or NMP, complex as prepared in Example 1): ~ 10 mM; solubility in water and most organic solvents ([3]; water and most organic solvents, listed as complex): limited solubility; also recorded: low solubility
2 | [CH3][Hg][Cl] [MeHgCl] | – | – | – | does not exhibit a mobility shift at all | – | – | –
3 | NCCN.[Cl][Pt][Cl] [PtenCl2] | – | – | – | saturation binding curve | – | – | –
4 | N.N.[Cl][Pt][Cl] [cisplatin, cis-dicholorodiammineplatinum(II), reference compound] | only the latter reagent can efficiently induce DNA-protein cross-links | only the latter reagent can efficiently induce DNA-protein cross-links | bind avidly to DNA | – | only the latter reagent can efficiently induce DNA-protein cross-links | – | –
5 | NCC1(CN)CCOCC1.O=C([O-])C1(C(=O)[O-])CCC1.[Pt+2] [enloplatin] | – | – | – | – | – | caused nephrotoxicity | –
6 | O=C([O-])C1(C(=O)[O-])CCC1.[NH-]CC(C[NH-])(CO)CO.[Pt+4] [zeniplatin] | – | – | – | – | – | caused nephrotoxicity | –

From US5534542A, “Methods and materials relating to a bi-metallic cross-linking species” (priority 1994, dated 1996)
